Converted amounts (≈) assume the structure as drawn.
Assays:
[1] = Bioavailability in rat; assay type: ADME, organism-based; conditions: in vivo
Homo sapiens = species on record: Homo sapiens; test: Selectivity for GPR40 over GPR43
[2] = Solubility at pH 7.4; assay type: physicochemical; conditions: buffer
[3] = Distribution coefficient, log D at pH 7.4; assay type: physicochemical; conditions: octanol/water
[4] = target: Free fatty acid receptor 1 (Homo sapiens, UniProt O14842); test: Agonist activity at GPR40 receptor expressed in CHO cells by reporter gene assay; assay type: functional, cell-based
[5] = target: T1, Free fatty acid receptor 3 (Homo sapiens, UniProt O14843); test: Activity at GPR41 receptor
T1 sequence (O14843 whole entry): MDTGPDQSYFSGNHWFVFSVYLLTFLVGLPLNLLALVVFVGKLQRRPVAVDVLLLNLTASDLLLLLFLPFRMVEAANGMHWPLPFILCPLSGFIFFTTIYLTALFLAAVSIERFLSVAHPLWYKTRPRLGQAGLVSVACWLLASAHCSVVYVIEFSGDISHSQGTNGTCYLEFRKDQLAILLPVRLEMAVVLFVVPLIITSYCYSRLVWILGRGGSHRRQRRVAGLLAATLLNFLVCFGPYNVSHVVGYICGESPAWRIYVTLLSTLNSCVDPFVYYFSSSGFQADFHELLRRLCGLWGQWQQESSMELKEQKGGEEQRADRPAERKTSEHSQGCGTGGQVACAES

[6] = target: T2, Peroxisome proliferator-activated receptor alpha (Homo sapiens, UniProt Q07869); test: Activity at PPARalpha receptor
T2 sequence (Q07869 whole entry): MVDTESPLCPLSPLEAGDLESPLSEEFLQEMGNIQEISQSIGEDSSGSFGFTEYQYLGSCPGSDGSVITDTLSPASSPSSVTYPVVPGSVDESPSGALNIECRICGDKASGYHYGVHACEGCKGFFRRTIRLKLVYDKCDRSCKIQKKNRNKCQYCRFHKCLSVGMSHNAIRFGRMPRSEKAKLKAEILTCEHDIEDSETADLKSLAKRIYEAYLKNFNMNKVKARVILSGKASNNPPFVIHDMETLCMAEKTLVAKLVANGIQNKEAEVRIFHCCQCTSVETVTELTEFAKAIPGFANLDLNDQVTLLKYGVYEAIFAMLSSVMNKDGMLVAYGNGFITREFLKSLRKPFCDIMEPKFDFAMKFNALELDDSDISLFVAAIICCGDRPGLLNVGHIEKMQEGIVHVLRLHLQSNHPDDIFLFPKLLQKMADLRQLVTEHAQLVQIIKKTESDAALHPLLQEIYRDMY

[7] = target: T3, Prostaglandin E2 receptor EP1 subtype (Homo sapiens, UniProt P34995); test: Activity at EP1 receptor
T3 sequence (P34995 whole entry): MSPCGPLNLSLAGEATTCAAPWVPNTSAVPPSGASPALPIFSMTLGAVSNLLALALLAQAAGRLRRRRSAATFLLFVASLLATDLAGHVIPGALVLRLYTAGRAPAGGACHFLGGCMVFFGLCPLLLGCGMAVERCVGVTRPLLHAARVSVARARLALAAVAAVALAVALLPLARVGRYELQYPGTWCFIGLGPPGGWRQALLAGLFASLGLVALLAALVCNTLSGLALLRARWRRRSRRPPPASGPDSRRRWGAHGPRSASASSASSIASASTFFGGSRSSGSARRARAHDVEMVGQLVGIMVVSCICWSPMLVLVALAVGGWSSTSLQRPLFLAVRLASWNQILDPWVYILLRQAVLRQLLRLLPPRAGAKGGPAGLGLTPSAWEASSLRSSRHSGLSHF

Cytochrome P450 2C19 = Cytochrome P450 2C19 (Homo sapiens, UniProt P33261); test: Inhibition of CYP2C19; assay type: ADME
Liver microsomes = test: Intrinsic clearance in human liver microsomes; assay type: ADME, Microsome

Chain of Free fatty acid receptor 1 (O14842 whole entry): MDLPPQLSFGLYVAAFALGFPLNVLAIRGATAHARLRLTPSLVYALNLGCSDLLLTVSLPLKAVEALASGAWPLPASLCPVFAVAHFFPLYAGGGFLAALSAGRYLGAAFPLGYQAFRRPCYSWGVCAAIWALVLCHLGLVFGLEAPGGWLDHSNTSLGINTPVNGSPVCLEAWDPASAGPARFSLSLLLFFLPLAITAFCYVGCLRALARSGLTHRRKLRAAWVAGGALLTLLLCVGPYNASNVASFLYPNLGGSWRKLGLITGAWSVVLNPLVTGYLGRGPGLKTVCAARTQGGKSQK
Chain of Cytochrome P450 2C19 (P33261 whole entry): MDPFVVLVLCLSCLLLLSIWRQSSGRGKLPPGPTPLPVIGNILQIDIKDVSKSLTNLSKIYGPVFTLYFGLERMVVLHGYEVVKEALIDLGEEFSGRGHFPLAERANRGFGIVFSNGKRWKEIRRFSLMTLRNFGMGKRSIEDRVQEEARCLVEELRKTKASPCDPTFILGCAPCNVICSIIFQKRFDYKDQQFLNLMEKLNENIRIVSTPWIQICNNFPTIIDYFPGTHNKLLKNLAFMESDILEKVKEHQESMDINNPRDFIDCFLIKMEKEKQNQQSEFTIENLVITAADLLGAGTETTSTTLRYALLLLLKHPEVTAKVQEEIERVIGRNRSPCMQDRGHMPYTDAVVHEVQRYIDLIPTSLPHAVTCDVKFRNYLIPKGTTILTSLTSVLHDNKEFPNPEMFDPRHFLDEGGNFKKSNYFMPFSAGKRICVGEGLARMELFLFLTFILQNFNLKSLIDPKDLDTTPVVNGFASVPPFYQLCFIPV

bioavailability [1]: 65% | Fold change (Homo sapiens): > 500 | solubility [2]: 290 µg/mL (≈ 835 µM) | logD [3]: 1.95 | %max [4]: 69% | EC50 [5]: > 50.1 µM | Ki [6]: > 3.16 µM | Ki [7]: > 1.58 µM | IC50 (Cytochrome P450 2C19): > 33 µM | CL (Liver microsomes): 0.74 mL/min/g
SMILES: O=C(O)CCc1ccc(NCc2cccc(Oc3ccccc3)c2)cc1 [GW9508]

Source: ChEMBL document CHEMBL1146379, “Solid phase synthesis and SAR of small molecule agonists for the GPR40 receptor” (Bioorg Med Chem Lett, 2007)
